Experimental data reported in US20120316137A1, “Methods and Compositions for Treating Cancer” (priority 2009, published 2012).

Assays:
[1] = test system: KG1 cells (FGFR1-FGFR1OP2 fusion); assay: Cell growth assay (72 h); format: cell-based; conditions: Homo sapiens, KG-1; KG1; read-out: Cell growth GI50
[2] = test system: FLT3, KIT, FGFR1 and PDGFRα in leukemic cell lines (panel); conditions: read-out: IC50 for inhibition of phosphorylation of all 4 RTKs; range over the 4 cell lines
[3] = test system: SNU16 gastric cancer cells with amplified FGFR2; assay: cells; conditions: Homo sapiens, SNU-16, read-out: Cell growth GI50 (nM)
[4] = test system: Phospho-FRS2a in SNU1 cells; assay: Western immunoblotting; conditions: Homo sapiens, SNU1, read-out: Phospho-FRS2a IC50 (nM)
[5] = test system: Phospho-Erk1/2 in AN3CA cells; assay: Western immunoblotting; conditions: Homo sapiens, AN3-CA, read-out: Phospho-Erk1/2 IC50 (nM)
LAMA CML leukemia cells = assay: Cellular proliferation assay
[6] = test system: MV4-11, Kasumi-1, KG1 and EOL1 cells (panel); assay: Cell viability assay, panel summary; conditions: read-out: IC50 for inhibition of viability of all 4 cell lines

Question: How did the GI50 [1] turn out when `Cc1ccc(C(=O)Nc2ccc(CN3CCN(C)CC3)c(C(F)(F)F)c2)cc1C#Cc1cnc2cccnn12` [Compound 1, 3-(imidazo[1,2-b]pyridazin-3-ylethynyl)-4-methyl-N-(4-((4-methylpiperazin-1-yl)-methyl)-3-(trifluoromethyl)phenyl)benzamide] was run?
Answer: 10 nM

Question: And the GI50 [3]?
Answer: 42 nM

Question: What about the IC50 [4] of the same molecule?
Answer: > 1000 nM

Question: What about the IC50 [5] of the same molecule?
Answer: 5.8 nM

Question: What about the IC50 (LAMA CML leukemia cells) of the same molecule?
Answer: 0.3 nM

Question: And the IC50 [6]?
Answer: 0.5 to 17 nM
